Here are results for 20 compounds from patent US11434242B2, “Dopamine-b-hydroxylase inhibitors” (BIAL-PORTELA & Cª, S.A., priority 2017, dated 2022).

This test concerns the target T1, Dopamine beta hydroxylase (Homo sapiens, UniProt P09172).
T1 construct: 125 μl of plasma; tissue Instituto Português do Sangue Transplantação; host or cells: human plasma from healthy donors
T1 sequence (P09172 40-617 limits assumed): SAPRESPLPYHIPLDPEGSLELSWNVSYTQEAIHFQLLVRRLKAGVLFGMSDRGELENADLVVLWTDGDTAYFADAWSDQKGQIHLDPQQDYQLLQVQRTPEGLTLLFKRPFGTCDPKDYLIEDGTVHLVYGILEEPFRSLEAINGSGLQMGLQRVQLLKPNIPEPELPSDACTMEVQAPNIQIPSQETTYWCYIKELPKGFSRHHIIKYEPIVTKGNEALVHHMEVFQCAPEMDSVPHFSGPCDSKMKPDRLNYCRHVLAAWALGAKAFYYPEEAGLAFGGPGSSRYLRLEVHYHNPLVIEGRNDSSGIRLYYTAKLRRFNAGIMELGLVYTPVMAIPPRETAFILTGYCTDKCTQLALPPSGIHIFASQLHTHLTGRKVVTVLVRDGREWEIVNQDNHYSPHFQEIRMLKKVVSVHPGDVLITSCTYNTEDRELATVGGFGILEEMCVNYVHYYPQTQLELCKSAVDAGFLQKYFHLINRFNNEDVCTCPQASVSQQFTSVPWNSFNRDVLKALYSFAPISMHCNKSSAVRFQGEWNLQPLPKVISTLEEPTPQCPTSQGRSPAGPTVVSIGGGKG
Description: Dopamine beta hydroxylase activity in human plasma. It counts as biochemical. The conditions noted are these: for Plasma (0.1 μM), activity in % of control: inhibitor 0.1 μM; for Plasma (1 μM), activity in % of control: inhibitor 1 μM. The method, boiled down:
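Octopamine production from tyramine over 45 min at 37° C, measured photometrically at 330 nm after SCX extraction and periodate oxidation against an octopamine standard curve, indicates plasma DβH activity. Compounds tested at final 10, 100 and 1000 nM in human plasma, pH 5.0 cofactor buffer, 10 min preincubation; results as % of control.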

With `O=C(Cc1[nH]c(=S)n2c1C[C@@H](c1c(F)ccc(Cl)c1F)C2)NC1CCCC1` [Example 84, (S)-2-(6-(3-chloro-2,6-difluorophenyl)-3-thioxo-2,5,6,7-tetrahydro-3H-pyrrolo[1,2-c]imidazol-1-yl)-N-cyclopentylacetamide], the “Plasma (0.1 μM), activity in % of control” value is on record as 24.5 % of control and the “Plasma (1 μM), activity in % of control” value was 1.0 % of control.
The corresponding values for `CN(C)C(=O)CN1CCN(C(=O)Cc2[nH]c(=S)n3c2C[C@H](c2c(F)c(F)cc(F)c2F)C3)CC1` [Example 85, (R)—N,N-dimethyl-2-(4-(2-(6-(2,3,5,6-tetrafluorophenyl)-3-thioxo-2,5,6,7-tetrahydro-3H-pyrrolo[1,2-c]imidazol-1-yl)acetyl)piperazin-1-yl)acetamide] are 59.1 % of control and 12.2 % of control.
The corresponding values for `NC(=O)C1CCN(C(=O)Cc2[nH]c(=S)n3c2C[C@H](c2c(F)c(F)cc(F)c2F)C3)CC1` [Example 86, (R)-1-(2-(6-(2,3,5,6-tetrafluorophenyl)-3-thioxo-2,5,6,7-tetrahydro-3H-pyrrolo[1,2-c]imidazol-1-yl)acetyl)piperidine-4-carboxamide] are 70.9 % of control and 14.7 % of control.
For the compound `O=C(Cc1[nH]c(=S)n2c1C[C@H](c1c(F)c(F)cc(F)c1F)C2)N1CCC2(CC1)OCCO2` [Example 87, (R)-1-(1,4-dioxa-8-azaspiro[4.5]decan-8-yl)-2-(6-(2,3,5,6-tetrafluorophenyl)-3-thioxo-2,5,6,7-tetrahydro-3H-pyrrolo[1,2-c]imidazol-1-yl)ethan-1-one], the “Plasma (0.1 μM), activity in % of control” value is 62.8 % of control and the “Plasma (1 μM), activity in % of control” value was 13.8 % of control.
The like results for `CC(C)NC(=O)Cc1[nH]c(=S)n2c1C[C@@H](c1c(F)ccc(Cl)c1F)C2` [Example 88, (S)-2-(6-(3-chloro-2,6-difluorophenyl)-3-thioxo-2,5,6,7-tetrahydro-3H-pyrrolo[1,2-c]imidazol-1-yl)-N-isopropylacetamide] were, in that order, 44.1 % of control and 6.1 % of control.
In the case of `O=C(Cc1[nH]c(=S)n2c1C[C@@H](c1c(F)ccc(Cl)c1F)C2)NCCCN1CCOCC1` [Example 89, (S)-2-(6-(3-chloro-2,6-difluorophenyl)-3-thioxo-2,5,6,7-tetrahydro-3H-pyrrolo[1,2-c]imidazol-1-yl)-N-(3-morpholinopropyl)acetamide], the “Plasma (0.1 μM), activity in % of control” value was 4.3 % of control and the “Plasma (1 μM), activity in % of control” value is given as 0 % of control.
`O=C(Cc1[nH]c(=S)n2c1C[C@@H](c1c(F)ccc(Br)c1F)C2)N[C@@H]1CCOC1` [Example 90, 2-((S)-6-(3-bromo-2,6-difluorophenyl)-3-thioxo-2,5,6,7-tetrahydro-3H-pyrrolo[1,2-c]imidazol-1-yl)-N—((R)-tetrahydrofuran-3-yl)acetamide]: the “Plasma (0.1 μM), activity in % of control” value is on record as 9.9 % of control and the “Plasma (1 μM), activity in % of control” value is recorded as 0.4 % of control.
On to `CN1CCN(C(=O)Cc2[nH]c(=S)n3c2C[C@@H](c2c(F)ccc(Br)c2F)C3)CC1` [Example 91, (S)-2-(6-(3-bromo-2,6-difluorophenyl)-3-thioxo-2,5,6,7-tetrahydro-3H-pyrrolo[1,2-c]imidazol-1-yl)-1-(4-methylpiperazin-1-yl)ethan-1-one], for which the “Plasma (0.1 μM), activity in % of control” value is 19.0 % of control and the “Plasma (1 μM), activity in % of control” value is listed as 0 % of control.
The like results for `CCCCN(C)C(=O)Cc1[nH]c(=S)n2c1C[C@@H](c1c(F)ccc(Br)c1F)C2` [Example 92, (S)-2-(6-(3-bromo-2,6-difluorophenyl)-3-thioxo-2,5,6,7-tetrahydro-3H-pyrrolo[1,2-c]imidazol-1-yl)-N-butyl-N-methylacetamide] were, in that order, 37.5 % of control and 0.1 % of control.
The like results for `O=C(Cc1[nH]c(=S)n2c1C[C@@H](c1c(F)ccc(Br)c1F)C2)NCCO` [Example 93, (S)-2-(6-(3-bromo-2,6-difluorophenyl)-3-thioxo-2,5,6,7-tetrahydro-3H-pyrrolo[1,2-c]imidazol-1-yl)-N-(2-hydroxyethyl)acetamide] were, in that order, 32.1 % of control and 1.0 % of control.
The like results for `O=C(Cc1[nH]c(=S)n2c1C[C@@H](c1c(F)ccc(Br)c1F)C2)NC1CC1` [Example 94, (S)-2-(6-(3-bromo-2,6-difluorophenyl)-3-thioxo-2,5,6,7-tetrahydro-3H-pyrrolo[1,2-c]imidazol-1-yl)-N-cyclopropylacetamide] were, in that order, 47.5 % of control and 0.8 % of control.
With `O=C(Cc1[nH]c(=S)n2c1C[C@@H](c1c(F)ccc(Br)c1F)C2)NCC1CC1` [Example 95, (S)-2-(6-(3-bromo-2,6-difluorophenyl)-3-thioxo-2,5,6,7-tetrahydro-3H-pyrrolo[1,2-c]imidazol-1-yl)-N-(cyclopropylmethyl)acetamide], the “Plasma (0.1 μM), activity in % of control” value is listed as 24.0 % of control and the “Plasma (1 μM), activity in % of control” value was 0 % of control.
The like results for `NC(=O)Cc1[nH]c(=S)n2c1C[C@@H](c1c(F)ccc(Br)c1F)C2` [Example 96, (S)-2-(6-(3-bromo-2,6-difluorophenyl)-3-thioxo-2,5,6,7-tetrahydro-3H-pyrrolo[1,2-c]imidazol-1-yl)acetamide] were, in that order, 22.4 % of control and 0.8 % of control.
The like results for `CCCNC(=O)Cc1[nH]c(=S)n2c1C[C@@H](c1c(F)ccc(Br)c1F)C2` [Example 97, (S)-2-(6-(3-bromo-2,6-difluorophenyl)-3-thioxo-2,5,6,7-tetrahydro-3H-pyrrolo[1,2-c]imidazol-1-yl)-N-propylacetamide] were, in that order, 22.7 % of control and 0.5 % of control.
The corresponding values for `O=C(Cc1[nH]c(=S)n2c1C[C@H](c1c(F)c(F)cc(F)c1F)C2)N1CCC[C@H]1CO` [Example 98, 1-((S)-2-(hydroxymethyl)pyrrolidin-1-yl)-2-((R)-6-(2,3,5,6-tetrafluorophenyl)-3-thioxo-2,5,6,7-tetrahydro-3H-pyrrolo[1,2-c]imidazol-1-yl)ethan-1-one] are 53.1 % of control and 11.7 % of control.
For the compound `O=C(Cc1[nH]c(=S)n2c1C[C@@H](c1c(F)c(F)cc(F)c1F)C2)NC1CCC1` [Example 99, (S)—N-cyclobutyl-2-(6-(2,3,5,6-tetrafluorophenyl)-3-thioxo-2,5,6,7-tetrahydro-3H-pyrrolo[1,2-c]imidazol-1-yl)acetamide], the “Plasma (0.1 μM), activity in % of control” value was 55.7 % of control and the “Plasma (1 μM), activity in % of control” value is listed as 10.3 % of control.
The corresponding values for `O=C(Cc1[nH]c(=S)n2c1C[C@@H](c1c(F)ccc(Br)c1F)C2)N1CCC[C@H]1CO` [Example 100, 2-((S)-6-(3-bromo-2,6-difluorophenyl)-3-thioxo-2,5,6,7-tetrahydro-3H-pyrrolo[1,2-c]imidazol-1-yl)-1-((S)-2-(hydroxymethyl)pyrrolidin-1-yl)ethan-1-one] are 26.2 % of control and 2.1 % of control.
In the case of `O=C(Cc1[nH]c(=S)n2c1C[C@@H](c1c(F)ccc(Br)c1F)C2)N1CCCC1` [Example 101, (S)-2-(6-(3-bromo-2,6-difluorophenyl)-3-thioxo-2,5,6,7-tetrahydro-3H-pyrrolo[1,2-c]imidazol-1-yl)-1-(pyrrolidin-1-yl)ethan-1-one], the “Plasma (0.1 μM), activity in % of control” value was 37.2 % of control and the “Plasma (1 μM), activity in % of control” value is listed as 3.3 % of control.
The like results for `O=C(Cc1[nH]c(=S)n2c1C[C@@H](c1c(F)ccc(Br)c1F)C2)NC1CCC1` [Example 102, (S)-2-(6-(3-bromo-2,6-difluorophenyl)-3-thioxo-2,5,6,7-tetrahydro-3H-pyrrolo[1,2-c]imidazol-1-yl)-N-cyclobutylacetamide] were, in that order, 20.3 % of control and 1.7 % of control.
The like results for `COCCNC(=O)Cc1[nH]c(=S)n2c1C[C@@H](c1c(F)ccc(Br)c1F)C2` [Example 103, (S)-2-(6-(3-bromo-2,6-difluorophenyl)-3-thioxo-2,5,6,7-tetrahydro-3H-pyrrolo[1,2-c]imidazol-1-yl)-N-(2-methoxyethyl)acetamide] were, in that order, 21.6 % of control and 1.8 % of control.
